Assays:
HeLa [1] = test: The compound was evaluated for its inhibitory activity against HeLa S3 cells in the presence of photoirradiation.; assay type: functional, cell-based; conditions: Homo sapiens, light or radiation study
HeLa [2] = test: The compound was evaluated for its inhibitory activity against HeLa S3 cells in the absence of photoirradiation.; assay type: functional, cell-based; conditions: Homo sapiens, light or radiation study

Row | IC50 (HeLa [1]) [µM] | IC50 (HeLa [2]) [µM] | Compound
1 | 1.9 | 8.8 | C[C@@H]1O[C@@H](OCc2ccc3c(c2O)C(=O)c2ccccc2C3=O)C[C@@H](N(C)C)[C@@H]1O
2 | 4.8 | 9 | CC1OC(c2ccc3c(c2O)C(=O)c2ccccc2C3=O)CC(N(C)C)C1O (stereo unspecified)
3 | 4.3 | 13 | C[C@@H]1O[C@H](OCc2ccc3c(c2O)C(=O)c2ccccc2C3=O)C[C@@H](N(C)C)[C@@H]1O
